Laboratory results as given in patent publication US20140213513A1 (Sanofi, priority 2012, published 2014).
*1 amine or outer side, *2 acyl side, *3 side chain or, on linkers, in order; H or OH if unused. Where a SMILES comes first, the peptide text is derived from it. Side-chain parts run from the residue outwards. [ ]: non-standard residue; d: D form. The star is where a group is joined. γGlu = O=C(O)[C@H](CCC(=O)[*:2])N[*:1]; Stearoyl = CCCCCCCCCCCCCCCCCC(=O)*; Palmitoyl = CCCCCCCCCCCCCCCC(=O)*; Aib = CC(C)(N)C(=O)O

Key:
Type in all cases: cell-based
Settings in all cases: Table 7; cAMP formation
[1] = biological target: T1, human GIP receptor (hGIP R) (Homo sapiens, UniProt P48546); assay: cAMP response of HEK-293 cells stably expressing human GIP receptor (HTRF)
T1 construct: expressed in transfected cells
T1 sequence (P48546 22-466): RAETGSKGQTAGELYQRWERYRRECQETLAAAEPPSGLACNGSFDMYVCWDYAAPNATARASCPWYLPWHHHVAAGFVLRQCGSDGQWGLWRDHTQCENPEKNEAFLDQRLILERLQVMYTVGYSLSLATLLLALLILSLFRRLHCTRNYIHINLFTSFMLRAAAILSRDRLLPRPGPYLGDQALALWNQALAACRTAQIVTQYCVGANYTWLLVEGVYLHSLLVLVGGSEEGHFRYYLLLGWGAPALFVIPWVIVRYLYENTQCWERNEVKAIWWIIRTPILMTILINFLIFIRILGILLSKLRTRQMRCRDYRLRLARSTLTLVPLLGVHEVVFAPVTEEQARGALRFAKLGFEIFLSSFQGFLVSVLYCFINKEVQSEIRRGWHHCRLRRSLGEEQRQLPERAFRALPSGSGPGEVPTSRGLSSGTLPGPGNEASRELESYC
In short: (§1)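 Intracellular cAMP is quantified by HTRF following a 30-minute room-temperature incubation of cell suspensions (400000 cells/ml) with test compound in HBSS, 20 mM HEPES, 0.1% BSA and 2 mM IBMX.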

[2] = biological target: T2, human GLP-1 receptor (hGLP-1 R) (Homo sapiens, UniProt P43220); assay: cAMP response of HEK-293 cells stably expressing human GLP-1 receptor (HTRF)
T2 construct: expressed in transfected cells
T2 sequence (P43220 24-463): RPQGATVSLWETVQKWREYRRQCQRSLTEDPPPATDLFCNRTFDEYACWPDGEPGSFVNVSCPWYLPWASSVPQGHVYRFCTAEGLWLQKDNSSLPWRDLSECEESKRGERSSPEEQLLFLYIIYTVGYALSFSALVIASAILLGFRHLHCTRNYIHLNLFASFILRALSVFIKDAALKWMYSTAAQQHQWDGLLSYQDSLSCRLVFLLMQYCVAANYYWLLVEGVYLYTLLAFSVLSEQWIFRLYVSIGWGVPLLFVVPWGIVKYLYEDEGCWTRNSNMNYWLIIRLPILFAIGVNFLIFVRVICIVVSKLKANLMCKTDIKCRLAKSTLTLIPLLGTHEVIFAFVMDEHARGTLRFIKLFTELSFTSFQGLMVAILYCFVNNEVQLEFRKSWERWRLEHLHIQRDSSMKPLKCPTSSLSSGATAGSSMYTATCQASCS
In short: as §1

[3] = biological target: T3, human glucagon receptor (hGLUC R) (Homo sapiens, UniProt P47871); assay: cAMP response of HEK-293 cells stably expressing human glucagon receptor (HTRF)
T3 construct: expressed in transfected cells
T3 sequence (P47871 26-477): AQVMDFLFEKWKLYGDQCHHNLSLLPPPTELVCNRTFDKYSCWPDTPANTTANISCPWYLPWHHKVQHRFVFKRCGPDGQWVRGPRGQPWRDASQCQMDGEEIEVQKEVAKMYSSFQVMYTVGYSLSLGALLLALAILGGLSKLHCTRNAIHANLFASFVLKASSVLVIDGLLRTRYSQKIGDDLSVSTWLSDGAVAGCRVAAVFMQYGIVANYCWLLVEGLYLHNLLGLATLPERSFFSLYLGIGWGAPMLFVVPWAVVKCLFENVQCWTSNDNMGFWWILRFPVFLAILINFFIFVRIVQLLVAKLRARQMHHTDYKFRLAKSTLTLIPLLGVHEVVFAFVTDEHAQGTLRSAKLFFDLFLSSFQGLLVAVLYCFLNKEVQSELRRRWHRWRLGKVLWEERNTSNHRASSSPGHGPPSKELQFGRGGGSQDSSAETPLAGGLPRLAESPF
In short: as §1

Compound	EC50 [1] [nM]	EC50 [2] [nM]	EC50 [3] [nM]
CCCCCCCCCCCCCCCC(=O)N[C@@H](CCC(=O)NCCCC[C@H](NC(=O)[C@H](CCC(N)=O)NC(=O)[C@@H](NC(=O)[C@H](CO)NC(=O)[C@H](CC(C)C)NC(=O)[C@H](CC(=O)O)NC(=O)[C@H](CO)NC(=O)[C@@H](NC(=O)[C@H](Cc1ccccc1)NC(=O)[C@@H](NC(=O)CNC(=O)[C@H](CCC(N)=O)NC(=O)C(C)(C)NC(=O)[C@@H](N)Cc1ccc(O)cc1)[C@@H](C)O)[C@@H](C)O)[C@@H](C)CC)C(=O)N[C@@H](CCC(=O)O)C(=O)N[C@@H](CCCCN)C(=O)N[C@@H](CCCNC(=N)N)C(=O)N[C@@H](Cc1ccc(O)cc1)C(=O)N[C@@H](C)C(=O)NC(C)(C)C(=O)N[C@@H](CCC(=O)O)C(=O)N[C@@H](Cc1ccccc1)C(=O)N[C@H](C(=O)N[C@@H](CCC(=O)O)C(=O)N[C@@H](Cc1c[nH]c2ccccc12)C(=O)N[C@@H](CC(C)C)C(=O)N[C@@H](CCCCN)C(=O)N[C@@H](CC(N)=O)C(=O)N[C@H](C(=O)NCC(=O)N1CCC[C@H]1C(=O)N[C@@H](CO)C(=O)N[C@@H](CO)C(=O)NCC(=O)N[C@@H](C)C(=O)N1CCC[C@H]1C(=O)N1CCC[C@H]1C(=O)N1CCC[C@H]1C(=O)N[C@@H](CO)C(N)=O)[C@@H](C)O)[C@@H](C)CC)C(=O)O [SEQ ID NO: 13, Y-Aib-Q-G-T-F-T-S-D-L-S-I-Q-K(yE-x53)-E-K-R-Y-A-Aib-EFIEWLKNTGPSSGAPPPSN H2] (H-Y[Aib]QGTFTSDLSIQK([γGlu-Palmitoyl])EKRYA[Aib]EFIEWLKNTGPSSGAPPPS-NH2)	0.0263	0.0141	0.0202
CCCCCCCCCCCCCCCCCC(=O)N[C@@H](CCC(=O)NCCCC[C@H](NC(=O)[C@H](CCC(N)=O)NC(=O)[C@@H](NC(=O)[C@H](CO)NC(=O)[C@H](CC(C)C)NC(=O)[C@H](CC(=O)O)NC(=O)[C@H](CO)NC(=O)[C@@H](NC(=O)[C@H](Cc1ccccc1)NC(=O)[C@@H](NC(=O)CNC(=O)[C@H](Cc1c[nH]cn1)NC(=O)C(C)(C)NC(=O)[C@@H](N)Cc1ccc(O)cc1)[C@@H](C)O)[C@@H](C)O)[C@@H](C)CC)C(=O)N[C@@H](CCC(=O)O)C(=O)N[C@@H](CCCCN)C(=O)N[C@@H](CCCNC(=N)N)C(=O)N[C@@H](C)C(=O)N[C@@H](C)C(=O)N[C@@H](Cc1ccccc1)C(=O)N[C@@H](CCC(=O)O)C(=O)N[C@@H](Cc1ccccc1)C(=O)N[C@H](C(=O)N[C@@H](CCC(=O)O)C(=O)N[C@@H](Cc1c[nH]c2ccccc12)C(=O)N[C@@H](CC(C)C)C(=O)N[C@@H](CCCCN)C(=O)N[C@@H](CC(N)=O)C(=O)N[C@H](C(=O)NCC(=O)N1CCC[C@H]1C(=O)N[C@@H](CO)C(=O)N[C@@H](CO)C(=O)NCC(=O)N[C@@H](C)C(=O)N1CCC[C@H]1C(=O)N1CCC[C@H]1C(=O)N1CCC[C@H]1C(=O)N[C@@H](CO)C(N)=O)[C@@H](C)O)[C@@H](C)CC)C(=O)O [SEQ ID NO: 32, Y-Aib-H-G-T-F-T-S-D-L-S-I-Q-K(yE-x70)-EKRAAFEFIEWLKNTGPSSGAPPPS-NH2] (H-Y[Aib]HGTFTSDLSIQK([γGlu-Stearoyl])EKRAAFEFIEWLKNTGPSSGAPPPS-NH2)	0.0335	0.0417	0.0192
CCCCCCCCCCCCCCCC(=O)N[C@@H](CCC(=O)NCCCC[C@H](NC(=O)[C@H](CCC(N)=O)NC(=O)[C@@H](NC(=O)[C@H](CO)NC(=O)[C@H](CC(C)C)NC(=O)[C@H](CC(=O)O)NC(=O)[C@H](CO)NC(=O)[C@@H](NC(=O)[C@H](Cc1ccccc1)NC(=O)[C@@H](NC(=O)CNC(=O)[C@H](CCC(N)=O)NC(=O)C(C)(C)NC(=O)[C@@H](N)Cc1ccc(O)cc1)[C@@H](C)O)[C@@H](C)O)[C@@H](C)CC)C(=O)N[C@@H](CCC(=O)O)C(=O)N[C@@H](CCCCN)C(=O)N[C@@H](CCCNC(=N)N)C(=O)N[C@@H](C)C(=O)NC(C)(C)C(=O)NC(C)(C)C(=O)N[C@@H](CCC(=O)O)C(=O)N[C@@H](Cc1ccccc1)C(=O)N[C@H](C(=O)N[C@@H](CCC(=O)O)C(=O)N[C@@H](Cc1c[nH]c2ccccc12)C(=O)N[C@@H](CC(C)C)C(=O)N[C@@H](CCCCN)C(=O)N[C@@H](CC(N)=O)C(=O)N[C@H](C(=O)NCC(=O)N1CCC[C@H]1C(=O)N[C@@H](CO)C(=O)N[C@@H](CO)C(=O)NCC(=O)N[C@@H](C)C(=O)N1CCC[C@H]1C(=O)N1CCC[C@H]1C(=O)N1CCC[C@H]1C(=O)N[C@@H](CO)C(N)=O)[C@@H](C)O)[C@@H](C)CC)C(=O)O [SEQ ID NO: 22, Y-Aib-Q-G-T-F-T-S-D-L-S-I-Q-K(yE-x53)-E-K-R-A-Aib-Aib-E-F-I-E-W-L-K-N-T-G-P-S-S-G-A-P-P-P-S-NH2] (H-Y[Aib]QGTFTSDLSIQK([γGlu-Palmitoyl])EKRA[Aib][Aib]EFIEWLKNTGPSSGAPPPS-NH2)	0.102	0.0085	2.21
CCCCCCCCCCCCCCCC(=O)N[C@@H](CCC(=O)NCCCC[C@H](NC(=O)[C@H](CCC(N)=O)NC(=O)[C@@H](NC(=O)[C@H](CO)NC(=O)[C@H](CC(C)C)NC(=O)[C@H](CC(=O)O)NC(=O)[C@H](CO)NC(=O)[C@@H](NC(=O)[C@H](Cc1ccccc1)NC(=O)[C@@H](NC(=O)CNC(=O)[C@H](CCC(N)=O)NC(=O)C(C)(C)NC(=O)[C@@H](N)Cc1ccc(O)cc1)[C@@H](C)O)[C@@H](C)O)[C@@H](C)CC)C(=O)N[C@@H](CCC(=O)O)C(=O)N[C@@H](CCCCN)C(=O)N[C@@H](Cc1ccc(O)cc1)C(=O)N[C@@H](C)C(=O)N[C@@H](C)C(=O)NC(C)(C)C(=O)N[C@@H](CCC(=O)O)C(=O)N[C@@H](Cc1ccccc1)C(=O)N[C@H](C(=O)N[C@@H](CCC(=O)O)C(=O)N[C@@H](Cc1c[nH]c2ccccc12)C(=O)N[C@@H](CC(C)C)C(=O)N[C@@H](CCCCN)C(=O)N[C@@H](CC(N)=O)C(=O)N[C@H](C(=O)NCC(=O)N1CCC[C@H]1C(=O)N[C@@H](CO)C(=O)N[C@@H](CO)C(=O)NCC(=O)N[C@@H](C)C(=O)N1CCC[C@H]1C(=O)N1CCC[C@H]1C(=O)N1CCC[C@H]1C(=O)N[C@@H](CO)C(N)=O)[C@@H](C)O)[C@@H](C)CC)C(=O)O [SEQ ID NO: 10, Y-Aib-Q-G-T-F-T-S-D-L-S-I-Q-K(yE-x53)-E-K-Y-A-A-Aib-E-F-I-E-W-L-K-N-T-G-P-S-S-G-A-P-P-P-S-NH2] (H-Y[Aib]QGTFTSDLSIQK([γGlu-Palmitoyl])EKYAA[Aib]EFIEWLKNTGPSSGAPPPS-NH2)	0.0144	0.0052	0.667
